Results: patent US20240036032A1, “PREDICTIVE IN VITRO ASSAY MIMICKING IN VIVO PHARMACOLOGY” (MIMI-Q GMBH, priority 2020, published 2024)
Like-named read-outs stand apart in the source and are kept apart here. Marks after values point to notes of the source that are not given here. Blank lines part the entries; values can stand above or below the molecule they belong to.

Assays:
[1] = cited from earlier work
colon cancer organoids = assay: Half growth inhibitory concentration (GI50): serial dilutions, 72 hours, MTS assay; type: cell-based, human (patient)
Description: A patient was diagnosed with colon cancer and mFOLFOX6 chemotherapeutic treatment was prescribed. To obtain primary organoid culture of colon cancer cells a sample of resected lung metastasis was used. Tissue was cut into small fragments and placed immediately into MACS tissue storage solution (Miltenyi Biotec, Germany) and stored for no more than 24 hours at 4° C. Then, the tissue fragments were transferred to a tube for tissue homogenization gentleMACS C Tube (Miltenyi Biotec, Germany) and enzyme cocktail from Tumor Dissociation Kit human (Miltenyi Biotec, Germany) consisting of 2.2 ml of DMEM/F-12 culture medium (Thermo Fisher Scientific, USA), 100 μl of Enzyme H solution (Miltenyi Biotec, Germany), 50 μl of Enzyme R solution (Miltenyi Biotec, Germany) and 12.5 μl of Enzyme A solution (Miltenyi Biotec, Germany) was added to the same tube. Then the tube was tightly closed with a lid and placed in gentleMACS Octo Dissociator (Miltenyi Biotec, Germany). For tissue dissociation, the “37C_h_TDK_3” program was used. […]
Organoids were diluted in Matrigel Growth Factor Reduced (GFR) Basement Membrane Matrix (Corning, USA) and seeded into 96-well plate (TPP, Switzerland). […] Relative number of cells was measured with MTS assay CellTiter 96 Aqueous One Solution Cell Proliferation Assay kit (Promega, USA) according to the manufacturer's instructions (FIG. 2). […]

[2] = Clinical pharmacokinetics parameters of mFOLFOX6 active substances from published data; type: in vivo, Humans; settings: 5-fluorouracil bolus, sequence number 2, calculated to a dose of 400 mg/m^2 assuming linear kinetics
Description: Pharmacokinetics parameters for all substances presented in Table 3 were identified based on published data. Substances of administration 1 (Oxaliplatin) and 2 (5-Fluorouracil) present simultaneously in the body, so time point of addition of 2 (5-Fluorouracil) was selected in a timeframe of selected incubation time for 1 (Oxaliplatin). Substances of administration 2 (5-Fluorouracil) and 3 (5-Fluorouracil) also present simultaneously in the body, so time point of addition of 3 (5-Fluorouracil) was selected in a timeframe of selected duration of exposure for 2 (5-Fluorouracil).

[3] = NCI Database; cited from earlier work
[4] = tested on: chemo-resistant metastatic CRC; settings: absence of genetic selection; cited from earlier work
[5] = 5-fluorouracil continuous infusion, sequence number 3
[6] = oxaliplatin infusion, mFOLFOX6, sequence number 1

sensitivity of organoids judged from GI50 (colon cancer organoids; Example 3, FIG. 3b): sensitive
GI50 (colon cancer organoids; Homo sapiens, Example 3, organoids from resected lung metastasis, 72 hours incubation): 2260 nM
Area under curve [2]: 82.1* μM·
Cmax ([2]; human, in vivo, intravenous, 400 mg/m2): 273 µM
Molecule: O=c1[nH]cc(F)c(=O)[nH]1 [5-Fluorouracil, 5-fluorouracil]
Area under curve [1, 5]: 156.4 µM
Cmax [1, 5]: 5.5 µM

Molecule: Nc1nc2c(c(=O)[nH]1)N(C=O)C(CNc1ccc(C(=O)N[C@@H](CCC(=O)O)C(=O)O)cc1)CN2 (stereo partly shown) [Leucovorin, Leucovorin Calcium (Folinic Acid)]
direct cytotoxic or cytostatic effect [3]: does not possess direct cytotoxic or cytostatic effect

Molecule: O=C1[O][Pt]2([NH][C@@H]3CCCC[C@H]3[NH]2)[O]C1=O [Oxaliplatin]
Area under curve [1, 6]: 6.8 µM
Cmax [1, 6]: 3.6 µM

Molecule: panitumumab: anti-EGFR therapy drug
patients responding to anti-EGFR therapy [4]: 10%
